# Patent US10376545B2, “Methods for producing hormone secreting cells in a subject” (ViaCyte, Inc., priority 2013, dated 2019)
# Key:
# [1] = system: INS, GCG, SST, GHRL, PDX1, NKX6.1, NGN3, ID1 expression; assay: Nanostring mRNA analysis of endocrine cell cultures; format: cell-based, human; settings: for pancreatic-lineage gene expression: agent at days 30-35 during stage 7, analyzed at d35
# [2] = system: hES-derived cell aggregates; assay: Cell aggregate size / cell mass in suspension culture (imaging); format: cell-based, human; settings: 3 days of 50 ng/mL at stage 3 as compared to 2 days
# Method: Preliminary studies were performed using Heregulin and FGF. In certain of these studies, Rho-kinase inhibitor, Y-27632, was included. […] An increase in cell aggregate size is advantageous in that it results in higher cell mass for later implantation and testing for function in animals.
# Various growth factors were explored for their ability to suppress genes such as NGN3 during stages 3 and 4. One candidate growth factor was Activin which has diverse functions in stem cell expansion and differentiation. For example, at low levels (e.g. 10 ng/mL), Activin helps maintain pluripotent stem cell pluripotency and cell proliferation. At higher levels (e.g. 100 ng/mL) Activin acts as a differentiation growth factor responsible for definitive endoderm production at stage 1 (see e.g., Table 8). To test its effect on repressing cells committed to the endocrine lineage (CHGA+) during PEC formation, Applicant first tested Activin at a mid-level concentration of about 50 ng/mL with standard adherent differentiation.
# So, Activin levels less than about 25 ng/mL are acceptable for maintaining cell mass and yield. Applicant then performed flow cytometry analysis on these cell cultures to determine whether Activin at low levels during stages 3 and 4 had any effect on cell aggregate composition; see Table 14. […]
# [3] = system: PEC derived from hESC; assay: Flow cytometry analysis of PEC derived from hESC (CHGA, NKX6.1, PDX1 sub-populations); format: cell-based, human
# Method: So, Activin levels less than about 25 ng/mL are acceptable for maintaining cell mass and yield. Applicant then performed flow cytometry analysis on these cell cultures to determine whether Activin at low levels during stages 3 and 4 had any effect on cell aggregate composition; see Table 14. […] Advantageously, the PDX1 only and Triple Negative sub-populations are reduced as compared to the control, particularly when Activin is used in stages 3 and 4.
# To determine the cell composition of the PEC population with the combination of Activin, Heregulin and Wnt during stage 3, flow cytometry was performed after stage 4 and the PEC cellular composition is shown in Table 14. […] Data from flow cytometry supports and is consistent with data from QPCR that the combination of the three factors (AHW) in general delayed or suppressed differentiation of cells committed to the endocrine lineage (CHGA+) in PEC without affecting the production of the non-endocrine (CHGA−) sub-population. The delayed expression of these genes in vitro is consistent with their on-set (or delay) in in vivo mammalian pancreatic development, whereby NGN3 expression in endocrine differentiation occurs after the on-set of PDX1 and NKX6.1 expression in the non-endocrine (CHGA−) sub-population. Additionally, there was no compromise in the PEC mass and yield. […]
# Undifferentiated human ESC were expanded and differentiated substantially as described above in Table 17 Protocol #1 for stages 1-4 and in Schulz et al. (2012) supra, except that during the three (3) days of stage 3, 4 different conditions were compared: (i) 0 noggin (“no noggin”) for all 3 days; (ii) 1 day of Noggin at 50 ng/mL and 2 days with no additional Noggin; (iii) 2 days of Noggin at 50 ng/mL and 1 day with no additional noggin; and (iv) 3 days of Noggin at 50 ng/mL. After stage 3, each of these conditions (i) through (iv) then received the standard stage 4 differentiation media cocktail according to Table 8 and Table 17, but without additional Noggin. […] Moreover, with each additional day of noggin treatment, fewer non-endocrine multipotent pancreatic progenitor sub-populations were produced (compare 90.6% with no noggin to 64.6% with 3 days of noggin treatment).
# [4] = system: re-aggregated endocrine cell aggregates; assay: Cell-to-cell association of re-aggregated endocrine cell aggregates (stereomicroscope images); format: cell-based, human; settings: 10 μM Y-27632, Matrigel 0.05% v/v
# Method: In Example 11 above, the cell aggregates were dissociated and re-aggregated or re-associated between stage 6 and 7. Dissociation was performed using Accutase on or around day 20 and re-aggregated in rotation culture, substantially as described in Schulz et al. supra. The re-aggregation removes certain PEC sub-populations including any remaining non-endocrine (CHGA−) sub-populations as well as other non-endocrine cells as described in more detail in Kelly et al. (2011), supra. Endocrine cells have affinity for each other, however, this interaction in vitro is relatively weak, even the re-aggregated cells at stages 6/7 were only loosely associated. So, studies were performed to test various factors and agents for their ability to increase the cell-to-cell interactions within the endocrine cell aggregates.
# The combination of Y-27632 and Matrigel increased at least for example the cell-to-cell interaction of the cell aggregates over either component alone.
# A differentiated culture produced substantially as described in Example 12, at day 20 was dissociated with Accutase and re-aggregated in db with 5% FBS (lower concentrations of FBS, i.e. 2% or 1% are also effective) and DNAse. Y-27632 was not included in the re-aggregation medium as doing so would result in incorporation of non-endocrine (CHGA−) sub-population as well as other non-endocrine cells into the newly formed aggregates. […]
# [5] = system: SOX17 expression; settings: 1 μg/mL of insulin; cited from earlier work
# [6] = 50 ng/mL of FGF2 for 2 days at stage 3
# [7] = 50 ng/mL of FGF2 for 3 days at stage 3
compound,measurement,setting,value
FGF2: Fibroblast growth factor 2,pancreatic-lineage gene expression,[1],significant increase in SST expression
same,cell aggregate size,[2],An increase in cell aggregate size was also observed
same,CHGA+ (Endocrine),[3]; [6],11.9%
same,CHGA− NKX6.1− PDX1− (Triple Negative/Residual Cells),[3]; [6],9.15%
same,"CHGA−, NKX6.1+, PDX1+ (Non-endocrine)",[3]; [6],79%
same,CHGA+ (Endocrine),[3]; [7],0.33%
same,CHGA− NKX6.1− PDX1− (Triple Negative/Residual Cells),[3]; [7],22.7%
same,"CHGA−, NKX6.1+, PDX1+ (Non-endocrine)",[3]; [7],76.9%
IGF2: Insulin-like growth factor II,INS expression,"[1]; 25 or 100 ng/mL from day 17 for about 3 days, stage 6, data not shown",more capable of inducing INS expression than IGF1
C[C@@H](N)[C@H]1CC[C@H](C(=O)Nc2ccncc2)CC1 [Y-27632],cell associations of re-aggregated endocrine cell aggregates,[4],capable of promoting tighter cell associations
"CC(C)(C(=O)NCC(F)(F)C(F)(F)F)C(=O)N[C@@H]1C(=O)Nc2ccccc2-c2ccccc21 [RO4929097, reference compound]",NGN3 expression,"[1]; 1 μM for 2 days at stage 5, day 15 versus day 13",strongly induced NGN3 expression
"C/C(=C\c1ccc(C(=O)O)cc1)c1ccc2c(c1)C(C)(C)CCC2(C)C [TTNPB, 4-[(E)-2-(5,6,7,8-Tetrahydro-5,5,8,8-tetramethyl-2-naphthalenyl)-1-propenyl]benzoic acid, reference compound]",PDX1 expression,[1]; 0.5 nM alone at stages 6 & 7 or stage 7 alone,does not appear to increase PDX1 expression
"NC(=O)c1cccnc1 [nicotinamide, reference compound]",increase in the INS/GCG expression ratio,"[1]; stage 6 culture conditions, analyzed at day 21",3 fold
insulin,SOX17 expression is reduced,[5],4 fold
FGF1: acidic FGF,pancreatic-lineage gene expression,[1],upregulated GCG and SST
